The source of these data is PMC7263640 (Journal of visualized experiments : JoVE, 2019).

This test addresses T1, Olfr1377 (Mus musculus, UniProt B2RQ46).
T1 sequence (B2RQ46 1-307): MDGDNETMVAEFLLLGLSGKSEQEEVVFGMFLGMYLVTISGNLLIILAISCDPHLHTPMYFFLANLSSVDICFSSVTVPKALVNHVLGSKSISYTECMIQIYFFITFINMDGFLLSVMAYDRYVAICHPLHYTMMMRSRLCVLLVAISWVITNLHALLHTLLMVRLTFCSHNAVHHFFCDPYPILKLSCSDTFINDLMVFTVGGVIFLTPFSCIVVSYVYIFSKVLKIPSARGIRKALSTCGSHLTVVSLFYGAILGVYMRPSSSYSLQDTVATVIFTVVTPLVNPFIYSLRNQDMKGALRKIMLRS
The experiment in a line: GloSensor cAMP luminescence in Hana3A cells, vapor-phase odorant. The test is classed as cell-based.

A word on the EC50: it is the concentration giving half of the maximal effect. `CC(=O)c1ccccc1` [acetophenone] yielded an EC50 of 161 µM.
